From patent US20250026778A1 (TIUMBIO CO., LTD., priority 2021, published 2025)

molecular target: T1, his-galectin-3 (Homo sapiens, UniProt P17931); test: TR-FRET assay (in vitro galectin-3 binding inhibitory activity test); settings: Table 1; compound at 20 μM; 60 nM his-galectin-3, 15 nM biotin-ASF; read-out: % Inhibitory activity (at 20 μM)
T1 construct: purchased Abcam
Method: TR-FRET Assay (In Vitro Galectin-3 Binding Inhibitory Activity Test)
TR-FRET assay was performed in ½ Area Plate-96 (PerkinElmer). Final concentrations of components in the assay were 60 nM his-galectin-3 (Abcam), 15 nM biotin-ASF (Axxora), 2 nM Mab anti-6×His Tb (Cisbio) and 20 nM SA-d2 (Cisbio). The reaction was performed in a buffer containing 25 mM HEPES, 100 mM NaCl, 0.005% Tween 20 and 0.05% BSA. 20 μL his-galectin-3 and 1 μL compound were mixed first, and then 20 μL biotin-ASF, 5 μL anti-His Tb and 5 μL SA-d2 were added in order. After incubation for at least 3.5 hours at RT, TR-FRET signals were measured at 615/665 nm […] wavelengths using a VICTOR Nivo (PerkinElmer). The positive control used DMSO instead of the compound, and the negative control excluded ASF-biotin. N-acetyl-D-lactosamine (LacNAc), an endogenous ligand unit of galectin-3, was evaluated together as a control substance to compare galectin-3 binding inhibitory activity.

T1 sequence (P17931 whole entry): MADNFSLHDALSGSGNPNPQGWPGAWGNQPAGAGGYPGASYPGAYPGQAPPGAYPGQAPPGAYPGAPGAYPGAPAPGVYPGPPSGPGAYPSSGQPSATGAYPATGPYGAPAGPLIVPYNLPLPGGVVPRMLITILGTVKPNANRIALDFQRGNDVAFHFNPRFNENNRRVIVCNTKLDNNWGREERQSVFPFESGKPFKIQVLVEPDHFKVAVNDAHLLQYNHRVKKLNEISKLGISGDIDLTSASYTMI

Row | Structure (SMILES) | inhibition at 20 µM [%]
1 | O=C(CO[C@@H]1[C@@H](n2cc(-c3cc(F)c(F)c(F)c3)nn2)[C@@H](O)[C@@H](CO)O[C@@]12CCCO2)N1CCC(O)CC1 [Compound A22, 2-(((5S,7R,8R,9S,10R)-8-hydroxy-7-(hydroxymethyl)-9-(4-(3,4,5-trifluorophenyl)-1H-1,2,3-triazol-1-yl)-1,6-dioxaspiro[4.5]decan-10-yl)oxy)-1-(4-hydroxypiperidin1-yl)ethanone] | 25 to 50
2 | OC[C@H]1O[C@@]2(CCCCO2)[C@H](O)[C@@H](n2cc(-c3cc(F)c(F)c(F)c3)nn2)[C@H]1O [Compound A24, (2R,3R,4S,5R,6S)-2-(hydroxymethyl)-4-(4-(3,4,5-trifluorophenyl)-1H-1,2,3-triazol-1-yl)-1,7-dioxaspiro[5.5]undecane-3,5-diol] | 25 to 50
3 | O=S1(=O)CCC(CO[C@@H]2[C@@H](n3cc(-c4cc(F)c(F)c(F)c4)nn3)[C@@H](O)[C@@H](CO)O[C@@]23CCCO3)CC1 [Compound A26, 4-((((5S,7R,8R,9S,10R)-8-hydroxy-7-(hydroxymethyl)-9-(4-(3,4,5-trifluorophenyl)-1H-1,2,3-triazol-1-yl)-1,6-dioxaspiro[4.5]decan-10-yl)oxy)methyl)tetrahydro-2H-thiopyran 1,1-dioxide] | 25 to 50
4 | OC[C@H]1O[C@@]2(CCCO2)[C@H](OCC(F)F)[C@@H](n2cc(-c3cc(F)c(F)c(F)c3)nn2)[C@H]1O [Compound A27, (5S,7R,8R,9S,10R)-10-(2,2-difluoroethoxy)-7-(hydroxymethyl)-9-(4-(3,4,5-trifluorophenyl)-1H-1,2,3-triazol-1-yl)-1,6-dioxaspiro[4.5]decan-8-ol] | 25 to 50
5 | Cn1nnc(-c2ccc(CO[C@@H]3[C@@H](n4cc(-c5cc(F)c(F)c(F)c5)nn4)[C@@H](O)[C@@H](CO)O[C@@]34CCCO4)cc2)n1 [Compound A28, (5S,7R,8R,9S,10R)-7-(hydroxymethyl)-10-((4-(2-methyl-2H-tetrazol-5-yl)benzyl)oxy)-9-(4-(3,4,5-trifluorophenyl)-1H-1,2,3-triazol-1-yl)-1,6-dioxaspiro[4.5]decan-8-ol] | 25 to 50
6 | OC[C@H]1O[C@]2(OCC[C@H]2c2ccccc2)[C@H](O)[C@@H](n2cc(-c3cc(F)c(F)c(F)c3)nn2)[C@H]1O [Compound A30, (4S,5S,7R,8R,9S,10R)-7-(hydroxymethyl)-4-phenyl-9-(4-(3,4,5-trifluorophenyl)-1H-1,2,3-triazol-1-yl)-1,6-dioxaspiro[4.5]decane-8,10-diol] | < 25
7 | O=C(CO[C@@H]1[C@@H](n2cc(-c3cc(F)c(F)c(F)c3)nn2)[C@@H](O)[C@@H](CO)O[C@@]12CCCO2)N1CC(F)(F)C1 [Compound A33, 1-(3,3-difluoroazetidin-1-yl)-2-(((5S,7R,8R,9S,10R)-8-hydroxy-7-(hydroxymethyl)-9-(4-(3,4,5-trifluorophenyl)-1H-1,2,3-triazol-1-yl)-1,6-dioxaspiro[4.5]decan-10-yl)oxy)ethanone] | 25 to 50
8 | O=C(CO[C@@H]1[C@@H](n2cc(-c3cc(F)c(F)c(F)c3)nn2)[C@@H](O)[C@@H](CO)O[C@@]12CCCO2)N1CC(O)C1 [Compound A34, 2-(((5S,7R,8R,9S,10R)-8-hydroxy-7-(hydroxymethyl)-9-(4-(3,4,5-trifluorophenyl)-1H-1,2,3-triazol-1-yl)-1,6-dioxaspiro[4.5]decan-10-yl)oxy)-1-(3-hydroxyazetidin-1-yl)ethanone] | 25 to 50
9 | OC[C@H]1O[C@@]2(CCCO2)[C@H](OCc2ccc3c(c2)OCO3)[C@@H](n2cc(-c3cc(F)c(F)c(F)c3)nn2)[C@H]1O [Compound A35, (5S,7R,8R,9S,10R)-10-(benzo[d][1,3]dioxol-5-ylmethoxy)-7-(hydroxymethyl)-9-(4-(3,4,5-trifluorophenyl)-1H-1,2,3-triazol-1-yl)-1,6-dioxaspiro[4.5]decan-8-ol] | 25 to 50
10 | OC[C@H]1O[C@@]2(CCCCO2)[C@H](OCc2ccc3c(c2)OCO3)[C@@H](n2cc(-c3cc(F)c(F)c(F)c3)nn2)[C@H]1O [Compound A44, (2R,3R,4S,5R,6S)-5-(benzo[d][1,3]dioxol-5-ylmethoxy)-2-(hydroxymethyl)-4-(4-(3,4,5-trifluorophenyl)-1H-1,2,3-triazol-1-yl)-1,7-dioxaspiro[5.5]undecan-3-ol] | 25 to 50
11 | OC[C@H]1O[C@@]2(CCCCO2)[C@H](OCc2nn[nH]n2)[C@@H](n2cc(-c3cc(F)c(F)c(F)c3)nn2)[C@H]1O [Compound A45, (2R,3R,4S,5R,6S)-5-((2H-tetrazol-5-yl)methoxy)-2-(hydroxymethyl)-4-(4-(3,4,5-trifluorophenyl)-1H-1,2,3-triazol-1-yl)-1,7-dioxaspiro[5.5]undecan-3-ol] | 50 to 75
12 | OC[C@H]1O[C@@]2(CCCCO2)[C@H](OCC(F)F)[C@@H](n2cc(-c3cc(F)c(F)c(F)c3)nn2)[C@H]1O [Compound A46, (2R,3R,4S,5R,6S)-5-(2,2-difluoroethoxy)-2-(hydroxymethyl)-4-(4-(3,4,5-trifluorophenyl)-1H-1,2,3-triazol-1-yl)-1,7-dioxaspiro[5.5]undecan-3-ol] | 25 to 50

The next lines start with the values.

Row | inhibition at 20 µM [%] | Structure (SMILES)
13 | 25 to 50 | O=C(CO[C@@H]1[C@@H](n2cc(-c3cc(F)c(F)c(F)c3)nn2)[C@@H](O)[C@@H](CO)O[C@@]12CCCO2)Nc1ccccc1 [Compound A23, 2-(((5S,7R,8R,9S,10R)-8-hydroxy-7-(hydroxymethyl)-9-(4-(3,4,5-trifluorophenyl)-1H-1,2,3-triazol-1-yl)-1,6-dioxaspiro[4.5]decan-10-yl)oxy)-N-phenylacetamide]
14 | 25 to 50 | OC[C@H]1O[C@@]2(CCCCO2)[C@H](OCc2ccccc2)[C@@H](n2cc(-c3cc(F)c(F)c(F)c3)nn2)[C@H]1O [Compound A25, (2R,3R,4S,5R,6S)-5-(benzyloxy)-2-(hydroxymethyl)-4-(4-(3,4,5-trifluorophenyl)-1H-1,2,3-triazol-1-yl)-1,7-dioxaspiro[5.5]undecan-3-ol]
15 | < 25 | O=C(CO[C@@H]1[C@@H](n2cc(-c3cc(F)c(F)c(F)c3)nn2)[C@@H](O)[C@@H](CO)O[C@@]12CCCO2)Nc1ccc(Cl)nn1 [Compound A29, N-(6-chloropyridazin-3-yl)-2-(((5S,7R,8R,9S,10R)-8-hydroxy-7-(hydroxymethyl)-9-(4-(3,4,5-trifluorophenyl)-1H-1,2,3-triazol-1-yl)-1,6-dioxaspiro[4.5]decan-10-yl)oxy)acetamide]
16 | 25 to 50 | O=C(O[C@@H]1[C@@H](n2cc(-c3cc(F)c(F)c(F)c3)nn2)[C@@H](O)[C@@H](CO)O[C@@]12CCCO2)c1ccccc1 [Compound A31, (5S,7R,8R,9S,10R)-8-hydroxy-7-(hydroxymethyl)-9-(4-(3,4,5-trifluorophenyl)-1H-1,2,3-triazol-1-yl)-1,6-dioxaspiro[4.5]decan-10-yl benzoate]
17 | 25 to 50 | COC(=O)CO[C@@H]1[C@@H](n2cc(-c3cc(F)c(F)c(F)c3)nn2)[C@@H](O)[C@@H](CO)O[C@@]12CCCCO2 [Compound A32, methyl-2-(((2R,3R,4S,5R,6S)-3-hydroxy-2-(hydroxymethyl)-4-(4-(3,4,5-trifluorophenyl)-1H-1,2,3-triazol-1-yl)-1,7-dioxaspiro[5.5]undecan-5-yl)oxy)acetate]
18 | 25 to 50 | OC[C@H]1O[C@@]2(CCCO2)[C@H](OCc2ccccc2O)[C@@H](n2cc(-c3cc(F)c(F)c(F)c3)nn2)[C@H]1O [Compound A37, (5S,7R,8R,9S,10R)-10-((2-hydroxybenzyl)oxy)-7-(hydroxymethyl)-9-(4-(3,4,5-trifluorophenyl)-1H-1,2,3-triazol-1-yl)-1,6-dioxaspiro[4.5]decan-8-ol]
19 | 25 to 50 | OC[C@H]1O[C@@]2(CCCO2)[C@H](OCc2cccc(O)c2)[C@@H](n2cc(-c3cc(F)c(F)c(F)c3)nn2)[C@H]1O [Compound A38, (5S,7R,8R,9S,10R)-10-((3-hydroxybenzyl)oxy)-7-(hydroxymethyl)-9-(4-(3,4,5-trifluorophenyl)-1H-1,2,3-triazol-1-yl)-1,6-dioxaspiro[4.5]decan-8-ol]
20 | 50 to 75 | O=C(O[C@@H]1[C@@H](n2cc(-c3cc(F)c(F)c(F)c3)nn2)[C@@H](O)[C@@H](CO)O[C@@]12CCCO2)c1cccc(F)c1 [Compound A39, (5S,7R,8R,9S,10R)-8-hydroxy-7-(hydroxymethyl)-9-(4-(3,4,5-trifluorophenyl)-1H-1,2,3-triazol-1-yl)-1,6-dioxaspiro[4.5]decan-10-yl 3-fluorobenzoate]
21 | 25 to 50 | COc1cccc(C(=O)O[C@@H]2[C@@H](n3cc(-c4cc(F)c(F)c(F)c4)nn3)[C@@H](O)[C@@H](CO)O[C@@]23CCCO3)c1 [Compound A40, (5S,7R,8R,9S,10R)-8-hydroxy-7-(hydroxymethyl)-9-(4-(3,4,5-trifluorophenyl)-1H-1,2,3-triazol-1-yl)-1,6-dioxaspiro[4.5]decan-10-yl 3-methoxybenzoate]

same assay, conditions: Table 3, found values; compound at 20 μM; 60 nM his-galectin-3, 15 nM biotin-ASF; read-out: % Inhibitory activity (at 20 μM)

Row | inhibition at 20 µM [%] | Structure (SMILES)
22 | 28.1 | O=C(CO[C@@H]1[C@@H](n2cc(-c3cc(F)c(F)c(F)c3)nn2)[C@@H](O)[C@@H](CO)O[C@@]12CCCO2)N1CCC(O)CC1 [Compound A22, 2-(((5S,7R,8R,9S,10R)-8-hydroxy-7-(hydroxymethyl)-9-(4-(3,4,5-trifluorophenyl)-1H-1,2,3-triazol-1-yl)-1,6-dioxaspiro[4.5]decan-10-yl)oxy)-1-(4-hydroxypiperidin1-yl)ethanone]
23 | 36.7 | COC(=O)CO[C@@H]1[C@@H](n2cc(-c3cc(F)c(F)c(F)c3)nn2)[C@@H](O)[C@@H](CO)O[C@@]12CCCCO2 [Compound A32, methyl-2-(((2R,3R,4S,5R,6S)-3-hydroxy-2-(hydroxymethyl)-4-(4-(3,4,5-trifluorophenyl)-1H-1,2,3-triazol-1-yl)-1,7-dioxaspiro[5.5]undecan-5-yl)oxy)acetate]

same assay, conditions: read-out: % Inhibitory activity (at 20 μM), Table 1; compound at 20 μM; 60 nM his-galectin-3, 15 nM biotin-ASF

Row | Structure (SMILES) | inhibition at 20 µM [%]
24 | O=C(O[C@H]1[C@@H](n2cc(-c3cc(F)c(F)c(F)c3)nn2)[C@@H](O)[C@@H](CO)O[C@@]12CCCO2)c1ccccc1 [Compound A42, (5S,7R,8R,9S,10S)-8-hydroxy-7-(hydroxymethyl)-9-(4-(3,4,5-trifluorophenyl)-1H-1,2,3-triazol-1-yl)-1,6-dioxaspiro[4.5]decan-10-yl benzoate] | < 25
